According to patent publication US20260193278A1, “NOVEL PHTHALOCYANINE COMPOUNDS AND THE USE THEREOF FOR THE TREATMENT OF DISEASES” (RHODES UNIVERSITY, priority 2022, published 2026):

Assays:
Format in all cases: cell-based
S. aureus = test: Dark toxicity against S. aureus, concentration study at 0 min (CFU counting); details: for Staph log CFU/ml (logarithmic reduction value) / Staph μM (concentration corresponding to the logarithmic reduction): in the dark, at 0 min; for Staph log CFU/ml (logarithmic reduction value): at the concentration of the μM column; for Staph μM (concentration corresponding to the logarithmic reduction): range tested 0-10 μM; for log reduction (dark toxicity): 0 min
Method: (§1) 500 μM stock solutions of the samples were prepared in ultra-pure water (5% DMSO) and used at different concentrations in the biological assays.
(§2) Two bacterial strains were used for the PACT studies; S. aureus as a gram-(+) bacterium and E. coli as a gram-(−) negative bacterium. Stock cultures were grown aerobically in 6 mL of nutrient broth incubated at 37° C. on a rotary shaker (~200 rpm) to obtain bacteria cultures. The incubation was maintained until the optical density of the culture at 600 nm was determined to be between 0.6 and 0.8. The resulting bacterial solution was centrifuged to remove the broth, and bacterial cells were washed three times with PBS. The solution of the bacteria was prepared by diluting with PBS to obtain […] bacteria solutions corresponding to ~10^9 and ~10^8 colony forming units (CFU)/mL, respectively.
(§3) The bacteria/photosensitizer mixtures were incubated in an oven equipped with a shaker for 30 min in the dark at 37° C. before plating. 100 μL of solution was taken from the suspension and was immediately inoculated on agar plates to determine the activity at 0 min without treatment. The number of colonies was then counted on each plate after 18 h of incubation at 37° C. Control treatments were performed in the absence of photosensitizer. All experiments were carried out three times. The data for CFU/mL were converted to the logarithmic form.

E. coli = test: Dark toxicity against E. coli, concentration study at 0 min (CFU counting); details: in the dark; for Ecoli log CFU/ml (logarithmic reduction value): at the concentration of the μM column; for Ecoli μM (concentration corresponding to the logarithmic reduction): range tested 0-15 μM
Method: as §1, §2, §3

[1] = test system: MCF-7 (human breast adenocarcinoma) cells; test: In vitro dark cytotoxicity, MCF-7 cells (anticancer studies); details: MCF-7, dark; for Min. Death conc. / Cell death: 24 h; for Cell death: at the Min. Death conc.
Method: MCF-7 (human breast adenocarcinoma) cells were cultured in Dulbecco's modified Eagle's medium-10% fetal bovine serum (DMEM-FBS) and PSA (penicillin/streptomycin/Amphotericin B) at 37° C. in an incubator (5% CO2) in 75 cm^2 vented flasks. The cultures were grown as a monolayer. The growth cells were transferred to well plates by trypsinizing with 0.25% trypsin-EDTA. The Pc stock concentrations were prepared by separately dissolving them in DMSO (1%) and diluting in water and the Pc gradient concentration was prepared by taking known aliquots from the stock and finally made up to marked volume with supplemented media with phenol red.
It was studied from […] both in the dark. 100 μL each of the newly prepared gradient Pcs concentration of 0 μg/mL (control), 5 μg/mL, 10 μg/mL, 20 μg/mL, 40 μg/mL, 60 μg/mL 80 μg/mL, 100 μg/mL and 120 μg/mL were administered on the incubated seeded cells. The 96 well cell culture plates containing the cells and the Pcs were incubated at 37° C. and 5% CO2 in the dark for 24 h. After 24 h treatment, the wells were rinsed with 100 μL DPBS. Cell survival was expressed as percentage of control cells (cells without Pcs). Post treatment cell viability was measured using the cell proliferation […] reagent (WST-1 assay) on a Synergy 2 multi-mode microplate reader (BioTek®) at a wavelength of 450 nm according to the following equation 1.

Compound	Staph log CFU/ml (logarithmic reduction value) (S. aureus)	Staph μM (concentration corresponding to the logarithmic reduction) (S. aureus)	Ecoli log CFU/ml (logarithmic reduction value) (E. coli)	Ecoli μM (concentration corresponding to the logarithmic reduction) (E. coli)	Min. Death conc. [1]	Cell death [1]	log reduction (dark toxicity) (S. aureus; at 10 μM)	optimal concentration to kill the cancer cells [1]	cancer cells killed at the optimal concentration [1]	destruction of bacteria (FIG. 2) (S. aureus; at 0.5 μM)	log reduction (dark toxicity) (S. aureus; at 0.5-10 μM)
C[n+]1c(-c2ccc(Oc3ccc4c(c3)C3=Nc5c6ccc(Oc7ccc(-c8[nH]c9cc(F)cc(Br)c9[n+]8C)cc7)cc6c6[n]5[Co][n]5c(c7ccc(Oc8ccc(-c9[nH]c%10cc(F)cc(Br)c%10[n+]9C)cc8)cc7c5=NC5=NC(=N6)c6cc(Oc7ccc(-c8[nH]c9cc(F)cc(Br)c9[n+]8C)cc7)ccc65)=NC4=N3)cc2)[nH]c2cc(F)cc(Br)c21.[I-].[I-].[I-].[I-] [Compound 230]	9.25 log CFU/ml	0.5 μM	8.79 log CFU/ml	1 μM	5 µM	54.9%					
C[n+]1c(-c2ccc(Oc3ccc4c(c3)C3=Nc5c6ccc(Oc7ccc(-c8[nH]c9cc(F)cc(Br)c9[n+]8C)cc7)cc6c6[n]5[Cu][n]5c(c7ccc(Oc8ccc(-c9[nH]c%10cc(F)cc(Br)c%10[n+]9C)cc8)cc7c5=NC5=NC(=N6)c6cc(Oc7ccc(-c8[nH]c9cc(F)cc(Br)c9[n+]8C)cc7)ccc65)=NC4=N3)cc2)[nH]c2cc(F)cc(Br)c21.[I-].[I-].[I-].[I-] [Compound 231]	9.25 log CFU/ml	0.5 μM	8.79 log CFU/ml	12.5 μM	5 µM	56.08%					
C[n+]1c(-c2ccc(Oc3ccc4c(c3)C3=Nc5c6ccc(Oc7ccc(-c8[nH]c9cc(Cl)cc(Cl)c9[n+]8C)cc7)cc6c6[n]5[Cu][n]5c(c7ccc(Oc8ccc(-c9[nH]c%10cc(Cl)cc(Cl)c%10[n+]9C)cc8)cc7c5=NC5=NC(=N6)c6cc(Oc7ccc(-c8[nH]c9cc(Cl)cc(Cl)c9[n+]8C)cc7)ccc65)=NC4=N3)cc2)[nH]c2cc(Cl)cc(Cl)c21.[I-].[I-].[I-].[I-] [Compound 201]	9.61 log CFU/ml	8 μM	8.79 log CFU/ml	12.5 μM	120 µM	45.4%	9.63	120 µM	45.4%		
C[n+]1c(-c2ccc(Oc3ccc4c(c3)C3=Nc5c6ccc(Oc7ccc(-c8[nH]c9cc(Cl)c(Cl)cc9[n+]8C)cc7)cc6c6[n]5[Cu][n]5c(c7ccc(Oc8ccc(-c9[nH]c%10cc(Cl)c(Cl)cc%10[n+]9C)cc8)cc7c5=NC5=NC(=N6)c6cc(Oc7ccc(-c8[nH]c9cc(Cl)c(Cl)cc9[n+]8C)cc7)ccc65)=NC4=N3)cc2)[nH]c2cc(Cl)c(Cl)cc21.[I-].[I-].[I-].[I-] [Compound 209]	9.31 log CFU/ml	10 μM	8.79 log CFU/ml	2.5 μM	20 µM	80.4%					
Tetrakis [4-(4-(5-bromo-1H-benzo[d]imidazol-2-yl)phenoxy phthalocyaninato] zinc(II) tetraiodide [Compound 217]	9.15 log CFU/ml	1 μM	8.78 log CFU/ml	5 μM	5 µM	40.1%					
C[n+]1c(-c2ccc(Oc3ccc4c(c3)C3=Nc5c6ccc(Oc7ccc(-c8[nH]c9cc(Br)cc(Cl)c9[n+]8C)cc7)cc6c6[n]5[Cu][n]5c(c7ccc(Oc8ccc(-c9[nH]c%10cc(Br)cc(Cl)c%10[n+]9C)cc8)cc7c5=NC5=NC(=N6)c6cc(Oc7ccc(-c8[nH]c9cc(Br)cc(Cl)c9[n+]8C)cc7)ccc65)=NC4=N3)cc2)[nH]c2cc(Br)cc(Cl)c21.[I-].[I-].[I-].[I-] [Compound 235]	9.25 log CFU/ml	10 μM	8.79 log CFU/ml	12.5 μM	10 µM	34.8%					
C[n+]1c(-c2ccc(Oc3ccc4c(c3)C3=Nc5c6ccc(Oc7ccc(-c8[nH]c9cc(Cl)c(Cl)cc9[n+]8C)cc7)cc6c6[n]5[Zn][n]5c(c7ccc(Oc8ccc(-c9[nH]c%10cc(Cl)c(Cl)cc%10[n+]9C)cc8)cc7c5=NC5=NC(=N6)c6cc(Oc7ccc(-c8[nH]c9cc(Cl)c(Cl)cc9[n+]8C)cc7)ccc65)=NC4=N3)cc2)[nH]c2cc(Cl)c(Cl)cc21.[I-].[I-].[I-].[I-] [Compound 207]	9.31 log CFU/ml	4 μM	8.79 log CFU/ml	2.5 μM	120 µM	38.3%					
C[n+]1c(-c2ccc(Oc3ccc4c(c3)C3=Nc5c6ccc(Oc7ccc(-c8[nH]c9cc(Br)cc(Cl)c9[n+]8C)cc7)cc6c6[n]5[Zn][n]5c(c7ccc(Oc8ccc(-c9[nH]c%10cc(Br)cc(Cl)c%10[n+]9C)cc8)cc7c5=NC5=NC(=N6)c6cc(Oc7ccc(-c8[nH]c9cc(Br)cc(Cl)c9[n+]8C)cc7)ccc65)=NC4=N3)cc2)[nH]c2cc(Br)cc(Cl)c21.[I-].[I-].[I-].[I-] [Compound 233]	9.25 log CFU/ml	4 μM	8.79 log CFU/ml	1 μM	60 µM	91.7%					
Tetrakis [4-(4-(5-bromo-1H-benzo[d]imidazol-2-yl)phenoxy phthalocyaninato] copper(II) tetraiodide [Compound 219]	9.15 log CFU/ml	10 μM	8.78 log CFU/ml	12.5 μM	10 µM	36.9%					
C[n+]1c(-c2ccc(Oc3ccc4c(c3)C3=Nc5c6ccc(Oc7ccc(-c8[nH]c9cc(Cl)cc(Cl)c9[n+]8C)cc7)cc6c6[n]5[Co][n]5c(c7ccc(Oc8ccc(-c9[nH]c%10cc(Cl)cc(Cl)c%10[n+]9C)cc8)cc7c5=NC5=NC(=N6)c6cc(Oc7ccc(-c8[nH]c9cc(Cl)cc(Cl)c9[n+]8C)cc7)ccc65)=NC4=N3)cc2)[nH]c2cc(Cl)cc(Cl)c21.[I-].[I-].[I-].[I-] [Compound 200]	9.61 log CFU/ml	0.5 μM	8.79 log CFU/ml	1 μM	40 µM	80.9%		40 µM	80.9%	complete destruction	9.63
C[n+]1c(-c2ccc(Oc3ccc4c(c3)C3=Nc5c6ccc(Oc7ccc(-c8[nH]c9cc(Br)cc(Cl)c9[n+]8C)cc7)cc6c6[n]5[Co][n]5c(c7ccc(Oc8ccc(-c9[nH]c%10cc(Br)cc(Cl)c%10[n+]9C)cc8)cc7c5=NC5=NC(=N6)c6cc(Oc7ccc(-c8[nH]c9cc(Br)cc(Cl)c9[n+]8C)cc7)ccc65)=NC4=N3)cc2)[nH]c2cc(Br)cc(Cl)c21.[I-].[I-].[I-].[I-] [Compound 234]	9.25 log CFU/ml	0.5 μM	8.79 log CFU/ml	2.5 μM	60 µM	90.4%					
